Our source for the TGI values is PubChem BioAssay (NCI).

By TGI is commonly meant the concentration giving total growth inhibition.

Some test systems named below: OVCAR-5 ovarian; UACC-257 melanoma; UO-31 renal; SR leukemia; U251 CNS; SK-MEL-5 melanoma; SK-MEL-2 melanoma; NCI-H460 lung; SN12C renal; HT29 colon; SW-620 colon; T-47D breast; 786-0 renal; DU-145 prostate; SNB-75 CNS; SF-295 CNS; MDA-N.
Holding throughout (assay): DTP human tumour cell line panel, 48 h

The structures appear in SMILES notation.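 96-well plates; 48 h exposure; 5 concentrations. Endpoints by linear interpolation between flanking doses. Not reached: highest tested concentration assigned. TGI is the concentration that stops growth completely.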 Some results are limits rather than exact numbers.

Take `O=C(O)c1cc(CCc2ccc(O)c(O)c2)ccc1O`: the TGI in the test with OVCAR-5 ovarian is greater than 100 µM; with UACC-257 melanoma, greater than 100 µM; in the test with UO-31 renal it was greater than 100 µM; in the test on SR leukemia, 61.7 µM; with U251 CNS, greater than 100 µM; in the test with SK-MEL-5 melanoma, greater than 100 µM. In addition, the total growth inhibition concentration (TGI) in the test with SK-MEL-2 melanoma, in the test on NCI-H460 lung, in the test with SN12C renal, in the test with HT29 colon, in the test with SW-620 colon and in the test with T-47D breast was greater than 100 µM throughout. For the same compound, the TGI was greater than 100 µM with 786-0 renal; greater than 100 µM with DU-145 prostate; greater than 100 µM with SNB-75 CNS; greater than 100 µM with SF-295 CNS; 32.3 µM in the test on MDA-N.

With `Cc1cn2cc(-c3cccs3)nc2s1`, the concentration for total growth inhibition (TGI) in the test on OVCAR-5 ovarian, with UACC-257 melanoma, in the test with UO-31 renal, in the test with SR leukemia, with U251 CNS and in the test with SK-MEL-5 melanoma was greater than 100 µM in each case. For the same compound, the TGI with SK-MEL-2 melanoma was greater than 100 µM; in the test on NCI-H460 lung, greater than 100 µM; in the test with SN12C renal it was greater than 100 µM; in the test with HT29 colon, greater than 90.1 µM; in the test on SW-620 colon, greater than 100 µM; in the test with T-47D breast, greater than 100 µM. For the same compound, the TGI in the test on 786-0 renal, in the test with DU-145 prostate, with SNB-75 CNS, in the test on SF-295 CNS and with MDA-N was greater than 100 µM each time.

As for `CC(C)=CCC[C@@H](C)[C@H]1CC[C@@]2(C)[C@@H]3CC[C@H]4C(C)(C)[C@@H](O)CC[C@@]45C[C@@]35CC[C@]12C`, the TGI in the test with OVCAR-5 ovarian is greater than 100 µM; in the test with UACC-257 melanoma, greater than 100 µM; with UO-31 renal, greater than 66.2 µM; in the test with SR leukemia it was greater than 67.1 µM; with U251 CNS it was 31.1 µM; with SK-MEL-5 melanoma it was greater than 64.4 µM. In addition, the TGI in the test with SK-MEL-2 melanoma was greater than 100 µM; in the test with NCI-H460 lung it was 39.8 µM; with SN12C renal, 41.8 µM; in the test with HT29 colon, greater than 100 µM; with SW-620 colon, greater than 100 µM; with T-47D breast, greater than 100 µM. Moreover, the TGI in the test with 786-0 renal is greater than 61.6 µM; in the test with DU-145 prostate, greater than 100 µM; in the test with SNB-75 CNS, greater than 100 µM; in the test with SF-295 CNS it was greater than 78.7 µM; in the test on MDA-N, greater than 100 µM.

Turning to `COc1cccc(OC)c1C1ON=C(c2ccccc2)N1C12CC3CC(CC(C3)C1)C2` (stereo not drawn), the TGI in the test with OVCAR-5 ovarian, in the test with UACC-257 melanoma, in the test with UO-31 renal, in the test on SR leukemia, with U251 CNS and in the test on SK-MEL-5 melanoma was greater than 100 µM throughout. Also, the TGI in the test with SK-MEL-2 melanoma, with NCI-H460 lung, with SN12C renal, in the test on HT29 colon, with SW-620 colon and in the test on T-47D breast was greater than 100 µM each time. The TGI in the test with 786-0 renal, in the test with DU-145 prostate, in the test on SNB-75 CNS, in the test on SF-295 CNS and in the test with MDA-N was greater than 100 µM in each case.

As to `O=C1C2C3C4C1C1C2[C@H](OCc2ccccc2)C3C1[C@H]4OCc1ccccc1` (stereo partly drawn), the TGI in the test on OVCAR-5 ovarian was 56 µM; with UACC-257 melanoma it was greater than 100 µM; with UO-31 renal it was greater than 100 µM; in the test on SR leukemia, greater than 100 µM; in the test with U251 CNS, greater than 100 µM; with SK-MEL-5 melanoma it was greater than 100 µM. Also, the TGI is greater than 100 µM in the test on SK-MEL-2 melanoma; greater than 100 µM with NCI-H460 lung; greater than 100 µM in the test with SN12C renal; 32.7 µM in the test with HT29 colon; greater than 100 µM with SW-620 colon; greater than 100 µM in the test with T-47D breast. For the same compound, the TGI with 786-0 renal, in the test with DU-145 prostate, in the test with SNB-75 CNS, with SF-295 CNS and in the test with MDA-N was greater than 100 µM in each case.

For the compound `C=C1c2nc3ccccc3n2C=C(c2ccc(OC)cc2)N1c1ccc(OCCN2CCCCC2)cc1`, the TGI was greater than 100 µM with OVCAR-5 ovarian; 10.8 µM in the test on UACC-257 melanoma; greater than 48.2 µM in the test with UO-31 renal; 28.6 µM in the test with SR leukemia; greater than 91.3 µM in the test with U251 CNS; greater than 58.5 µM in the test with SK-MEL-5 melanoma. Moreover, the TGI in the test on SK-MEL-2 melanoma is greater than 51.6 µM; in the test with NCI-H460 lung it was 14.8 µM; in the test with SN12C renal it was greater than 100 µM; with HT29 colon, 43.3 µM; in the test with SW-620 colon, 52.3 µM; in the test with T-47D breast, greater than 100 µM. Moreover, the TGI in the test on 786-0 renal was greater than 52.5 µM; in the test on DU-145 prostate, greater than 100 µM; with SNB-75 CNS it was greater than 100 µM; in the test with SF-295 CNS, greater than 100 µM; in the test on MDA-N, greater than 100 µM.

For the compound `NS(=O)(=O)c1ccc(NC(=S)NC(=O)Nc2ccc(Cl)c(Cl)c2)cc1`, the concentration for total growth inhibition (TGI) in the test on OVCAR-5 ovarian was 27.9 µM; in the test with UACC-257 melanoma, 41.4 µM; in the test on UO-31 renal, 9.66 µM; with SR leukemia it was greater than 100 µM; in the test with U251 CNS, 37.8 µM; in the test with SK-MEL-5 melanoma, 31.1 µM. For the same compound, the TGI with SK-MEL-2 melanoma is 34.4 µM; in the test with NCI-H460 lung it was greater than 69.8 µM; with SN12C renal, 31 µM; in the test on HT29 colon, 31.3 µM; in the test with SW-620 colon it was 35.9 µM; in the test with T-47D breast it was 33.3 µM. Further, the TGI in the test on 786-0 renal turned out to be 31.1 µM; in the test with DU-145 prostate, 33.7 µM; in the test on SNB-75 CNS, 28.8 µM; in the test with SF-295 CNS, 30.8 µM; in the test with MDA-N it was 29.6 µM.

With `O=C1C=CC2(C=C1)O[C@H](COCc1ccccc1)[C@@H](COCc1ccccc1)O2`, the TGI in the test on OVCAR-5 ovarian came out at 3.04 µM; in the test on UACC-257 melanoma it was 3.56 µM; with UO-31 renal it was 2.91 µM; in the test on SR leukemia, 0.849 µM; in the test on U251 CNS, 4.02 µM; with SK-MEL-5 melanoma, 3.22 µM. The TGI with SK-MEL-2 melanoma was found to be 3.46 µM; with NCI-H460 lung, 37.2 µM; in the test with SN12C renal, 3.6 µM; in the test on HT29 colon it was 5.88 µM; in the test on SW-620 colon, 0.765 µM; with T-47D breast, 6.99 µM. The TGI with 786-0 renal is 2.22 µM; in the test with DU-145 prostate, 12.5 µM; in the test on SNB-75 CNS, 13.4 µM; in the test on SF-295 CNS, 30.3 µM; in the test with MDA-N it was 3.53 µM.

Regarding `Cc1ccc(-c2n[nH]c(=O)n2/N=C\c2ccccc2O)cc1`, the TGI in the test on OVCAR-5 ovarian, in the test on UACC-257 melanoma, in the test with UO-31 renal, in the test on SR leukemia, with U251 CNS and in the test on SK-MEL-5 melanoma was greater than 100 µM each time. Moreover, the TGI in the test on SK-MEL-2 melanoma, with NCI-H460 lung, in the test with SN12C renal, in the test with HT29 colon, with SW-620 colon and in the test on T-47D breast was greater than 100 µM in each case. Further, the total growth inhibition concentration (TGI) in the test with 786-0 renal, with DU-145 prostate, in the test with SNB-75 CNS, in the test with SF-295 CNS and with MDA-N was greater than 100 µM each time.

`COC(=O)NC(=O)NC(Cc1ccccc1)NC(=O)OCc1ccccc1` (stereo not drawn): the TGI with OVCAR-5 ovarian, in the test on UACC-257 melanoma, in the test on UO-31 renal, with SR leukemia, in the test on U251 CNS and in the test with SK-MEL-5 melanoma was greater than 100 µM throughout. Besides, the TGI in the test on SK-MEL-2 melanoma, in the test on NCI-H460 lung, in the test on SN12C renal, in the test with HT29 colon, with SW-620 colon and in the test with T-47D breast was greater than 100 µM in each case. Besides, the TGI with 786-0 renal was greater than 100 µM; in the test on DU-145 prostate, greater than 100 µM; in the test on SNB-75 CNS, 50.5 µM; in the test with SF-295 CNS, greater than 100 µM; in the test on MDA-N, greater than 100 µM.

On to `CCCN(CCC)C(=S)Sc1nc(C)nc(N2CCN(c3nc(C)nc(SC(=S)N(CCC)CCC)c3[N+](=O)[O-])CC2)c1[N+](=O)[O-]`, for which the TGI in the test with OVCAR-5 ovarian is 45.4 µM; in the test with UACC-257 melanoma, 54.2 µM; in the test with UO-31 renal, 37.4 µM; with SR leukemia, greater than 81.9 µM; in the test with U251 CNS it was 16.7 µM; in the test on SK-MEL-5 melanoma it was 28.2 µM. The TGI in the test on SK-MEL-2 melanoma was 30.9 µM; in the test on NCI-H460 lung, greater than 100 µM; in the test on SN12C renal, greater than 39.8 µM; in the test on HT29 colon it was 21.7 µM; in the test with SW-620 colon, 17.1 µM; in the test with T-47D breast it was 39.9 µM. Also, the TGI in the test on 786-0 renal was greater than 53 µM; in the test on DU-145 prostate it was greater than 100 µM; with SNB-75 CNS it was greater than 100 µM; in the test with SF-295 CNS, greater than 58.1 µM; in the test on MDA-N, greater than 100 µM.

As for `O=c1[nH]c(=S)[nH]cc1CN1CCOCC1`, the TGI with OVCAR-5 ovarian, in the test on UACC-257 melanoma, in the test with UO-31 renal, with SR leukemia, in the test on U251 CNS and in the test with SK-MEL-5 melanoma was greater than 100 µM each time. In addition, the TGI in the test with SK-MEL-2 melanoma, in the test on NCI-H460 lung, in the test on SN12C renal, in the test with HT29 colon, in the test with SW-620 colon and in the test on T-47D breast was greater than 100 µM each time. The TGI with 786-0 renal, in the test with DU-145 prostate, with SNB-75 CNS, in the test with SF-295 CNS and with MDA-N was greater than 100 µM in each case.

Turning to `N#Cc1cc2c(cc1C#N)SCCSCCCSCCS2`, the TGI in the test on OVCAR-5 ovarian was greater than 100 µM; in the test on UACC-257 melanoma, greater than 100 µM; in the test on UO-31 renal, greater than 90.6 µM; in the test with SR leukemia it was greater than 70.3 µM; in the test on U251 CNS, 28.2 µM; in the test on SK-MEL-5 melanoma, greater than 100 µM. Moreover, the TGI in the test on SK-MEL-2 melanoma is 42.8 µM; in the test on NCI-H460 lung, greater than 53.8 µM; in the test with SN12C renal, greater than 100 µM; in the test on HT29 colon, greater than 100 µM; with SW-620 colon it was greater than 100 µM; in the test on T-47D breast, greater than 80.8 µM. In addition, the TGI was 19 µM in the test on 786-0 renal; greater than 100 µM with DU-145 prostate; 18.2 µM with SNB-75 CNS; 18.3 µM in the test with SF-295 CNS; greater than 100 µM in the test with MDA-N.

For `CC(C)(C)C(=O)/C=C(\OB(F)F)C(C)(C)C`, the TGI with OVCAR-5 ovarian, with UACC-257 melanoma, in the test on UO-31 renal, in the test with SR leukemia, in the test on U251 CNS and with SK-MEL-5 melanoma was greater than 100 µM each time. The TGI in the test on SK-MEL-2 melanoma, with NCI-H460 lung, in the test with SN12C renal, in the test on HT29 colon, with SW-620 colon and in the test with T-47D breast was greater than 100 µM throughout. For the same compound, the TGI with 786-0 renal, in the test with DU-145 prostate, in the test on SNB-75 CNS, in the test on SF-295 CNS and in the test on MDA-N was greater than 100 µM throughout.
